From patent US20080213219A1, “Methods for treatment and management of macular degeneration using 3-(4-amino-1-oxo-1,3-dihydro-isoindol-2-yl)-piperidine-2,6-dione” (Celgene Corporation, priority 2002, published 2008)

Legend:
TNF-α production [1] = test: Inhibition of TNF-α production following LPS-stimulation of human whole blood; assay type: cell-based; conditions: LPS-stimulated human whole blood; read-out: IC50 for inhibiting production of TNF-α
Excerpt: (§1) In a specific embodiment, inhibitions of TNF-α production following LPS-stimulation of human PBMC and human whole blood by 3-(4-amino-1-oxo-1,3-dihydro-isoindol-2-yl)-piperidine-2,6-dione, 4-(amino)-2-(2,6-dioxo-(3-piperidyl))-isoindoline-1,3-dione or thalidomide were investigated in vitro.

[2] = test system: TNF-α, IL1β, IL6, IL10 production; test: LPS-stimulated cytokine production by PBMC; assay type: cell-based
TNF-α production [3] = test: Inhibition of TNF-α production following LPS-stimulation of human PBMC; assay type: cell-based; conditions: LPS-stimulated PBMC, read-out: IC50 for inhibiting production of TNF-α
Excerpt: as §1

macular degeneration = test: Clinical study in patients with macular degeneration, adjuvant to photodynamic therapy with verteporfin; assay type: in vivo; conditions: about 10 mg/day for 20 weeks as adjuvant to verteporfin photodynamic therapy
Method: Immunomodulatory compounds are administered in an amount of about 0.1 to about 25 mg per day to patients with macular degeneration. In a specific embodiment, clinical studies are performed with forty patients with macular degeneration, who are divided into two groups. The first group receives conventional treatment for closing the leaking choroidal vessels (characteristic of this disease) by photodynamic therapy with verteporfin. Opthalmol 1999 (117): 1329-1345. The second group receives the same conventional therapy with verteporfin and 3-(4-amino-1-oxo-1,3-dihydro-isoindol-2-yl)-piperidine-2,6-dione in an amount of about 10 mg/day as an adjuvant for 20 weeks.
However, the first group without 3-(4-amino-1-oxo-1,3-dihydro-isoindol-2-yl)-piperidine-2,6-dione experiences progressive reperfusion of the ablated vessels several weeks after treatment. Progressive visual loss follows which requires the photodynamic therapy to be repeated.

laser-induced CNVM = conditions: intravitreal injection, monkeys; cited from earlier work
MD [4] = conditions: intravitreal injection, one-year period, patients with MD; cited from earlier work
MD [5] = conditions: cited from earlier work

Compound | IC50 (TNF-α production [1]) | LPS-stimulated production of IL1β [2] | LPS-stimulated production of IL6 [2] | LPS-stimulated production of TNF-α [2] | production of the anti-inflammatory cytokine IL10 [2] | IC50 (TNF-α production [3]) | neovascular cascade / duration of the effects of photodynamic therapy (macular degeneration) | growth of laser-induced CNVM (laser-induced CNVM) | prevention of severe visual loss (MD [4]) | efficacy at treating MD (MD [5]; clinical trial) | rate of adverse effects (MD [5]; in vivo)
Nc1cccc2c1CN(C1CCC(=O)NC1=O)C2=O (centres unmarked) [3-(4-Amino-1-oxo-1,3-dihydro-isoindol-2-yl)-piperidine-2,6-dione] | ~480 nM | dose-dependent inhibition | dose-dependent inhibition | dose-dependent inhibition | increased production | ~100 nM | sufficiently hindered | – | – | – | –
Nc1cccc2c1C(=O)N(C1CCC(=O)NC1=O)C2=O (centres unmarked) [4-(Amino)-2-(2,6-dioxo(3-piperidyl))-isoindoline-1,3-dione] | ~25 nM | dose-dependent inhibition | dose-dependent inhibition | dose-dependent inhibition | increased production | ~24 nM | – | – | – | – | –
C[C@]12C=CC(=O)C=C1CC[C@H]1[C@@H]3C[C@@H](O)[C@](O)(C(=O)CO)[C@@]3(C)C[C@H](O)[C@@]12F [triamcinolone] | – | – | – | – | – | – | – | inhibits | fails to prevent | – | –
interferon-α | – | – | – | – | – | – | – | – | – | ineffective | high rate of adverse effects
